Data published in ChEMBL document CHEMBL5625264, “Identification of (4-chlorophenyl)(5-hydroxynaphtho[1,2-b]furan-3-yl)methanone as novel COX-2 inhibitor with analgesic profile” (Bioorg Med Chem Lett, 2024).
Activity calls are given as the source filed them. No cut-off for these calls is given here.

Assays:
Mus musculus [1] = assay: Analgesic activity in ip dosed CFA-induced ICR mouse model of chronic inflammatory pain pretreated with CFA for 3 days followed by compound administration and measured at 30 to 300 min by pain behavior test; format: functional, organism-based; settings: time 30-300 min
Mus musculus [2] = assay: Analgesic activity in ip dosed formalin-induced ICR mouse model of acute inflammatory pain; format: functional, organism-based

SMILES | Activity (Mus musculus [1]) | Activity (Mus musculus [2])
O=C(Nc1ccccc1NC(=O)c1ccc2c(c1)OCO2)c1ccc2c(c1)OCO2 | Active | –
NS(=O)(=O)c1ccc(-c2sncc2-c2ccc(F)cc2)cc1 | Active | Active
O=C(c1ccc(Cl)cc1)c1coc2c1cc(O)c1ccccc12 | Active | Active
